Measurements: patent publication US11542257B2, “Arylnaphthalene compounds as vacuolar-ATPase inhibitors and the use thereof” (priority 2018, dated 2023)
Where two headings read alike, the source gives them in different places.

Legend:
[1] = tested on: A549 cells; assay: Cytotoxicity (MTT), A549 cells; conditions: read-out: A549 CC50, 72 h, MTT
[2] = tested on: endosomal acidification in HEK293 cells; assay: cells; assay type: cell-based; conditions: for IC50: read-out: HEK AO IC50
[3] = tested on: Ebolavirus (EBOV); assay: organism not typed; assay type: cell-based; conditions: for IC50: read-out: EBOV IC50
[4] = tested on: HEK293 cells
[5] = tested on: cytosolic pH of HEK293 cells; assay: Cytosolic pH, BCECF-AM, HEK293 cells; assay type: cell-based; conditions: FIG. 1B
[6] = tested on: endosomal acidification in A549 cells; assay: Inhibition of cellular endosomal acidification, acridine orange (AO), A549 cells; assay type: cell-based
[7] = Cytotoxicity (MTT), A549 cells; conditions: human
[8] = target: T1, V-ATPase (Homo sapiens, UniProt P27449+Q93050); assay: Acridine orange quenching in isolated HEK293 vesicles (proton-pumping function of V-ATPase); assay type: biochemical
[9] = target: T1, V-ATPase; assay type: biochemical
[10] = tested on: Marburg virus (MARV); assay type: cell-based
[11] = tested on: endosomal pH of HEK293 cells; assay: Intracellular endosomal pH, FITC-dextran, HEK293 cells; assay type: cell-based; conditions: HEK293, 4 h, 1-3 μM, FIG. 1C
[12] = in vitro; conditions: human
[13] = tested on: filoviral infection of primary human macrophages (PHM); assay type: cell-based, filovirus; conditions: read-out: PHM Antiviral IC50

T1 sequence (P27449 whole entry, looked up): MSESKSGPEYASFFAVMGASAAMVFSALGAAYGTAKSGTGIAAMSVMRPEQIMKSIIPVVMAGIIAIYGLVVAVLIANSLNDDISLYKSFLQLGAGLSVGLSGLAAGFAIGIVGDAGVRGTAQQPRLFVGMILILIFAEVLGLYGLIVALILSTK
T1 sequence (Q93050 whole entry, looked up): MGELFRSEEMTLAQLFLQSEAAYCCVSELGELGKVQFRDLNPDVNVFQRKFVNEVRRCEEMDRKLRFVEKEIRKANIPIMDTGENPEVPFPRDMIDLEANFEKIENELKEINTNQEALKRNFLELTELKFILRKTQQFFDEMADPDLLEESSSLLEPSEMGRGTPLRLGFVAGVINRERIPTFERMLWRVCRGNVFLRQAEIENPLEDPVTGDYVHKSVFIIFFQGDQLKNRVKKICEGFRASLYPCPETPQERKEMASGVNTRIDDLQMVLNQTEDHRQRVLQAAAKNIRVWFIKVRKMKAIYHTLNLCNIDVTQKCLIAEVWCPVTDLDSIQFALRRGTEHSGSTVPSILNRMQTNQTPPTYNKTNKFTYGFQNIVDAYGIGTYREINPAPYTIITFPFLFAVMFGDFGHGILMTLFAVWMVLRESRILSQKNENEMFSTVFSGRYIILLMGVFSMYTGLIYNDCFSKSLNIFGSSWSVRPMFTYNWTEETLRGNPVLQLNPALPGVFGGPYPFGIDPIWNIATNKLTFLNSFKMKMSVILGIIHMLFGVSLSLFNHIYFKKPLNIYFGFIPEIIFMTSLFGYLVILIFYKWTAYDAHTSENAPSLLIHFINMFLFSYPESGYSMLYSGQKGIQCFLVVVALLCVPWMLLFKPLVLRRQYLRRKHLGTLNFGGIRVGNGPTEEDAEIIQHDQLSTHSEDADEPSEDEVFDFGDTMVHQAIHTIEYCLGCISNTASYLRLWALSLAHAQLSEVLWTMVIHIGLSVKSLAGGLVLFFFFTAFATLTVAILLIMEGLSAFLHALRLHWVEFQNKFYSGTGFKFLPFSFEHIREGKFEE

SMILES	IC50 [2] [µM]	IC50 [3] [µM]	IC50 [6] [µM]	IC50 ([2]; Homo sapiens, HEK293, 4 h) [µM]	IC50 ([3]; HeLa) [µM]	CC50 at 72 h [7] [µM]	inhibition of ATP hydrolysis, in words [9]	CC50 [12] [µM]	further results
CO/C1=C\C(C)=C\[C@@H](C)[C@@H](O)[C@@H](C)C/C(C)=C/C=C/[C@H](OC)[C@@H]([C@@H](C)[C@@H](O)[C@H](C)[C@@]2(O)C[C@@H](O)[C@H](C)[C@@H](C(C)C)O2)OC1=O [Baf A1, bafilomycin A1, reference compound]	0.0405 ± 0.00331	0.0149 ± 0.00893	0.0213 ± 0.00255	–	–	–	–	–	CC50 [1]: 0.479 ± 0.266 µM; CC50 [4]: 0.32 ± 0.042 µM; change in cytosolic pH compared to the vehicle treated control [5]: no significant change
COc1cc2c(OC(C)=O)c3c(c(-c4ccc5c(c4)OCO5)c2cc1OC)C(=O)N(CCO)C3=O [Compound 1e, 9-(benzo[d][1,3]dioxol-5-yl)-2-(2-hydroxyethyl)-6,7-dimethoxy-1,3-dioxo-2,3-dihydro-1H-benzo[f]isoindol-4-yl acetate]	–	–	–	> 10	5.4 ± 2.92	–	–	–	effect on endosomal acidification (AO fluorescence ratio), in words [2]: did not cause a significant change in the fluorescence ratio; active in screen for inhibition of ebolavirus infection [3]: active
COc1cc2c(O)c3c(c(-c4ccc5c(c4)OCO5)c2cc1OC)C(=O)OC3 [Compound 2a, 9-(benzo[d][1,3]dioxol-5-yl)-4-hydroxy-6,7-dimethoxynaphtho[2,3-c]furan-1(3H)-one, reference compound]	0.476 ± 0.0601	0.678 ± 0.161	0.149 ± 0.0205	–	–	50.1 ± 15.5	inhibited ATP hydrolysis to a similar extent	–	times less potent than bafilomycin A1 (V-ATPase-mediated fluorescent quenching) [8]: about 7.5 times; IC50 [10]: 1.77 ± 0.08 µM; change in cytosolic pH compared to the vehicle treated control [5]: no significant change; endosomal pH after treatment [11]: ~7 pH
COc1cc2c(OC)c3c(c(-c4ccc5c(c4)OCO5)c2cc1OC)C(=O)OC3 [Compound 2b, 9-(benzo[d][1,3]dioxol-5-yl)-4,6,7-trimethoxynaphtho[2,3-c]furan-1(3H)-one]	0.265 ± 0.0586	0.171 ± 0.0402	0.0582 ± 0.00876	–	–	> 100	inhibited ATP hydrolysis to a similar extent	5.73 ± 0.841	–
CCOc1c2c(c(-c3ccc4c(c3)OCO4)c3cc(OC)c(OC)cc13)C(=O)OC2 [Compound 2c, 9-(benzo[d][1,3]dioxol-5-yl)-4-ethoxy-6,7-dimethoxynaphtho[2,3-c]furan-1(3H)-one]	0.254 ± 0.049	0.112 ± 0.0147	0.0524 ± 0.0193	–	–	77.4 ± 11	inhibited ATP hydrolysis to a similar extent	2.38	–
C#CCOc1c2c(c(-c3ccc4c(c3)OCO4)c3cc(OC)c(OC)cc13)C(=O)OC2 [Compound 2d, 9-(benzo[d][1,3]dioxol-5-yl)-6,7-dimethoxy-4-(prop-2-yn-1-yloxy)naphtho[2,3-c]furan-1(3H)-one]	–	–	–	0.263 ± 0.0466	0.175 ± 0.0217	–	–	2.04	–
C#CCCCOc1c2c(c(-c3ccc4c(c3)OCO4)c3cc(OC)c(OC)cc13)C(=O)OC2 [Compound 2e, 9-(benzo[d][1,3]dioxol-5-yl)-6,7-dimethoxy-4-(pent-4-yn-1-yloxy)naphtho[2,3-c]furan-1(3H)-one]	0.102 ± 0.019	0.0732 ± 0.0119	0.0848 ± 0.0119	–	–	> 100	inhibited ATP hydrolysis to a similar extent	–	times better activity than Bafilomycin A1 (proton pumping activity of V-ATPase) [8]: 2 times; times better activity than diphyllin (proton pumping activity of V-ATPase) [8]: 17 times; IC50 [13]: 0.24 µM; IC50 [10]: 0.402 ± 0.0459 µM
COc1cc2c(OCCCC#N)c3c(c(-c4ccc5c(c4)OCO5)c2cc1OC)C(=O)OC3 [Compound 2f, 4-((9-(benzo[d][1,3]dioxol-5-yl)-6,7-dimethoxy-1-oxo-1,3-dihydronaphtho[2,3-c]furan-4-yl)oxy)butanenitrile]	–	–	–	0.0987 ± 0.0295	0.0931 ± 0.0268	–	–	3.31 ± 0.74	–
COc1cc2c(OCCCN3CCOCC3)c3c(c(-c4ccc5c(c4)OCO5)c2cc1OC)C(=O)OC3 [Compound 2g, 9-(benzo[d][1,3]dioxol-5-yl)-6,7-dimethoxy-4-(3-morpholinopropoxy)naphtho[2,3-c]furan-1(3H)-one]	0.0743 ± 0.0239	0.107 ± 0.0237	0.0561 ± 0.0159	–	–	> 100	inhibited ATP hydrolysis to a similar extent	–	times better activity than diphyllin (proton pumping activity of V-ATPase) [8]: 7 times; IC50 [13]: 0.0577 ± 0.0086 µM; IC50 [10]: 0.135 ± 0.0114 µM
CCOC(=O)CN1CCN(CCCOc2c3c(c(-c4ccc5c(c4)OCO5)c4cc(OC)c(OC)cc24)C(=O)OC3)CC1 [Compound 2h, ethyl 2-(4-(3-((9-(benzo[d][1,3]dioxol-5-yl)-6,7-dimethoxy-1-oxo-1,3-dihydronaphtho[2,3-c]furan-4-yl)oxy)propyl)piperazin-1-yl)acetate]	0.172 ± 0.0406	0.132 ± 0.0323	0.101 ± 0.0138	–	–	> 100	inhibited ATP hydrolysis to a similar extent	–	IC50 [13]: 0.256 µM; IC50 [10]: 0.0816 ± 0.0287 µM
COc1cc2c(OCCCN3CCN(CCO)CC3)c3c(c(-c4ccc5c(c4)OCO5)c2cc1OC)C(=O)OC3 [Compound 2i, 9-(benzo[d][1,3]dioxol-5-yl)-4-(3-(4-(2-hydroxyethyl)piperazin-1-yl)propoxy)-6,7-dimethoxynaphtho[2,3-c]furan-1(3H)-one]	0.104 ± 0.0212	0.0762 ± 0.0146	–	–	–	–	–	–	–
COc1cc2c(O)c3c(c(-c4ccc5c(c4)OCO5)c2cc1OC)C(=O)N(N)C3 [Compound 3a, 2-amino-9-(benzo[d][1,3]dioxol-5-yl)-4-hydroxy-6,7-dimethoxy-2,3-dihydro-1H-benzo[f]isoindol-1-one]	–	–	–	9.06 ± 0.893	3.94 ± 0.604	28.7 ± 16.6	–	48.9 ± 3.61	effect on endosomal acidification (AO fluorescence ratio), in words [2]: moderately inhibited acidification; IC50 ([6]; Homo sapiens): 8.11 ± 0.67 µM
COc1cc2c(O)c3c(c(-c4ccc5c(c4)OCO5)c2cc1OC)C(=O)N(/N=C/c1ccccc1)C3 [Compound 3b, (E)-9-(benzo[d][1,3]dioxol-5-yl)-2-(benzylideneamino)-4-hydroxy-6,7-dimethoxy-2,3-dihydro-1H-benzo[f]isoindol-1-one]	–	–	–	> 10	6.63 ± 0.437	–	–	–	–
COc1cc2c(O)c3c(c(-c4ccc5c(c4)OCO5)c2cc1OC)C(=O)N(/N=C/c1cccnc1)C3 [Compound 3c, (E)-9-(benzo[d][1,3]dioxol-5-yl)-4-hydroxy-6,7-dimethoxy-2-((pyridin-3-ylmethylene)amino)-2,3-dihydro-1H-benzo[f]isoindol-1-one]	8.71 ± 0.769	4.48 ± 0.467	11.6	–	–	50.1 ± 27.7	–	49.9 ± 15.9	times less effective than diphyllin (AO quenching) [8]: 2 times
COc1cc2c(O)c3c(c(-c4ccc5c(c4)OCO5)c2cc1OC)C(=O)N(/N=C/c1ccc(Cl)cc1)C3 [Compound 3d, (E)-9-(benzo[d][1,3]dioxol-5-yl)-2-((4-chlorobenzylidene)amino)-4-hydroxy-6,7-dimethoxy-2,3-dihydro-1H-benzo[f]isoindol-1-one]	9.93 ± 0.14	1.17 ± 0.518	8.44 ± 0.367	–	–	78 ± 26.4	–	28.4 ± 2.71	times less effective than diphyllin (AO quenching) [8]: 4 times
COc1cc2c(O)c3c(c(-c4ccc5c(c4)OCO5)c2cc1OC)C(=O)N(/N=C/c1ccc(C#N)cc1)C3 [Compound 3g, (E)-4-(((9-(benzo[d][1,3]dioxol-5-yl)-4-hydroxy-6,7-dimethoxy-1-oxo-1,3-dihydro-2H-benzo[f]isoindol-2-yl)imino)methyl)benzonitrile]	–	–	–	> 10	1.69 ± 0.233	–	–	–	–
COc1cc2c(O)c3c(c(-c4ccc5c(c4)OCO5)c2cc1OC)C(=O)N(/N=C/c1c(F)c(F)c(F)c(F)c1F)C3 [Compound 3h, (E)-9-(benzo[d][1,3]dioxol-5-yl)-4-hydroxy-6,7-dimethoxy-2-(((perfluorophenyl)methylene)amino)-2,3-dihydro-1H-benzo[f]isoindol-1-one]	–	–	–	> 10	8.74 ± 2.18	–	–	–	–
